In brackets after ≈: the same amount, converted by molar mass.
What follows are compounds tested on C6 (assay: Cytotoxicity against rat C6 cells after 24 hrs by MTT assay). Conditions: C6, 24 h.
Assay type: functional, cell-based

Structure (SMILES) | IC50
Cn1nnnc1SCC(=O)N/N=c1/scc(-c2ccc([N+](=O)[O-])cc2)n1-c1ccccc1 | > 200 µg/mL
Cc1ccc(-c2cs/c(=N/NC(=O)CSc3nnnn3C)n2-c2ccccc2)cc1 | 36.3 µg/mL (≈ 83 µM)
Cc1ccc(-c2cs/c(=N/NC(=O)CSc3ncccn3)n2-c2ccccc2)cc1 | 85 µg/mL (≈ 196 µM)

These compounds were tested on NIH3T3 (assay: Cytotoxicity against mouse NIH/3T3 cells after 24 hrs by MTT assay). Conditions: NIH3T3, 24 h.
Assay type: cell-based

Structure (SMILES) | IC50
Cn1nnnc1SCC(=O)N/N=c1/scc(-c2ccc([N+](=O)[O-])cc2)n1-c1ccccc1 | 167 µg/mL (≈ 356 µM)
Cc1ccc(-c2cs/c(=N/NC(=O)CSc3nnnn3C)n2-c2ccccc2)cc1 | 243 µg/mL (≈ 556 µM)
Cc1ccc(-c2cs/c(=N/NC(=O)CSc3ncccn3)n2-c2ccccc2)cc1 | > 500 µg/mL

Each compound was assayed on C6 (assay: Cytotoxicity against rat C6 cells assessed as cell viability at 200 ug/ml after 24 hrs by MTT assay relative to control). Conditions: C6, 24 h, read-out: Activity.
Assay type: functional

Structure (SMILES) | viability at 200 µg/mL
Cn1nnnc1SCC(=O)N/N=c1/scc(-c2ccc([N+](=O)[O-])cc2)n1-c1ccccc1 | 58.6%
Cc1ccc(-c2cs/c(=N/NC(=O)CSc3nnnn3C)n2-c2ccccc2)cc1 | 39.7%
Cc1ccc(-c2cs/c(=N/NC(=O)CSc3ncccn3)n2-c2ccccc2)cc1 | 43.7%

These compounds were tested on C6 (assay: Cytotoxicity against rat C6 cells assessed as cell viability at 100 ug/ml after 24 hrs by MTT assay relative to control). Conditions: C6, 24 h, read-out: Activity.
Assay type: functional

Structure (SMILES) | viability at 100 µg/mL
Cn1nnnc1SCC(=O)N/N=c1/scc(-c2ccc([N+](=O)[O-])cc2)n1-c1ccccc1 | 64.1%
Cc1ccc(-c2cs/c(=N/NC(=O)CSc3nnnn3C)n2-c2ccccc2)cc1 | 39.7%
Cc1ccc(-c2cs/c(=N/NC(=O)CSc3ncccn3)n2-c2ccccc2)cc1 | 45.9%

Each compound was assayed on C6 (assay: Cytotoxicity against rat C6 cells assessed as cell viability at 50 ug/ml after 24 hrs by MTT assay relative to control). Conditions: C6, 24 h, read-out: Activity.
Assay type: functional

Structure (SMILES) | viability at 50 µg/mL
Cn1nnnc1SCC(=O)N/N=c1/scc(-c2ccc([N+](=O)[O-])cc2)n1-c1ccccc1 | 69.2%
Cc1ccc(-c2cs/c(=N/NC(=O)CSc3nnnn3C)n2-c2ccccc2)cc1 | 44.3%
Cc1ccc(-c2cs/c(=N/NC(=O)CSc3ncccn3)n2-c2ccccc2)cc1 | 64.4%

Each compound was assayed on C6 (assay: Cytotoxicity against rat C6 cells assessed as cell viability at 25 ug/ml after 24 hrs by MTT assay relative to control). Conditions: C6, 24 h, read-out: Activity.
Assay type: functional

Structure (SMILES) | viability at 25 µg/mL
Cn1nnnc1SCC(=O)N/N=c1/scc(-c2ccc([N+](=O)[O-])cc2)n1-c1ccccc1 | 69.3%
Cc1ccc(-c2cs/c(=N/NC(=O)CSc3nnnn3C)n2-c2ccccc2)cc1 | 60.7%
Cc1ccc(-c2cs/c(=N/NC(=O)CSc3ncccn3)n2-c2ccccc2)cc1 | 82.7%

What follows are compounds tested on C6 (assay: Cytotoxicity against rat C6 cells assessed as cell viability at 12 ug/ml after 24 hrs by MTT assay relative to control). Conditions: C6, 24 h, read-out: Activity.
Assay type: functional

Structure (SMILES) | viability at 12 µg/mL
Cn1nnnc1SCC(=O)N/N=c1/scc(-c2ccc([N+](=O)[O-])cc2)n1-c1ccccc1 | 76.2%
Cc1ccc(-c2cs/c(=N/NC(=O)CSc3nnnn3C)n2-c2ccccc2)cc1 | 68.8%
Cc1ccc(-c2cs/c(=N/NC(=O)CSc3ncccn3)n2-c2ccccc2)cc1 | 83%

The compounds below were run on C6 (assay: Cytotoxicity against rat C6 cells assessed as cell viability at 6 ug/ml after 24 hrs by MTT assay relative to control). Conditions: C6, 24 h, read-out: Activity.
Assay type: functional

Structure (SMILES) | viability at 6 µg/mL
Cn1nnnc1SCC(=O)N/N=c1/scc(-c2ccc([N+](=O)[O-])cc2)n1-c1ccccc1 | 80.4%
Cc1ccc(-c2cs/c(=N/NC(=O)CSc3nnnn3C)n2-c2ccccc2)cc1 | 88%
Cc1ccc(-c2cs/c(=N/NC(=O)CSc3ncccn3)n2-c2ccccc2)cc1 | 93.2%

What follows are compounds tested on Candida albicans (assay: Antimicrobial activity against Candida albicans ATCC 22019 after 18 to 24 hrs by microbroth dilution method). Conditions: not given.
Assay type: functional

Structure (SMILES) | MIC
Cn1nnnc1SCC(=O)N/N=c1/scc(-c2ccc([N+](=O)[O-])cc2)n1-c1ccccc1 | 250 µg/mL (≈ 534 µM)
Cc1ccc(-c2cs/c(=N/NC(=O)CSc3nnnn3C)n2-c2ccccc2)cc1 | 250 µg/mL (≈ 571 µM)
Cc1ccc(-c2cs/c(=N/NC(=O)CSc3ncccn3)n2-c2ccccc2)cc1 | 250 µg/mL (≈ 577 µM)

The compounds below were run on Fusarium culmorum (assay: Antimicrobial activity against wild type Fusarium culmorum after 48 to 72 hrs by microbroth dilution method). Conditions: not given.
Assay type: functional

Structure (SMILES) | MIC
Cn1nnnc1SCC(=O)N/N=c1/scc(-c2ccc([N+](=O)[O-])cc2)n1-c1ccccc1 | 250 µg/mL (≈ 534 µM)
Cc1ccc(-c2cs/c(=N/NC(=O)CSc3nnnn3C)n2-c2ccccc2)cc1 | 125 µg/mL (≈ 286 µM)
Cc1ccc(-c2cs/c(=N/NC(=O)CSc3ncccn3)n2-c2ccccc2)cc1 | 250 µg/mL (≈ 577 µM)

Each compound was assayed on Fusarium verticillioides (assay: Antimicrobial activity against Fusarium moniliforme NRRL 1866 after 48 to 72 hrs by microbroth dilution method). Conditions: not given.
Assay type: functional

Structure (SMILES) | MIC
Cn1nnnc1SCC(=O)N/N=c1/scc(-c2ccc([N+](=O)[O-])cc2)n1-c1ccccc1 | 250 µg/mL (≈ 534 µM)
Cc1ccc(-c2cs/c(=N/NC(=O)CSc3nnnn3C)n2-c2ccccc2)cc1 | 250 µg/mL (≈ 571 µM)
Cc1ccc(-c2cs/c(=N/NC(=O)CSc3ncccn3)n2-c2ccccc2)cc1 | 250 µg/mL (≈ 577 µM)

What follows are compounds tested on Fusarium solani (assay: Antimicrobial activity against Fusarium solani NRRL 13414 after 48 to 72 hrs by microbroth dilution method). Conditions: not given.
Assay type: functional

Structure (SMILES) | MIC
Cn1nnnc1SCC(=O)N/N=c1/scc(-c2ccc([N+](=O)[O-])cc2)n1-c1ccccc1 | 250 µg/mL (≈ 534 µM)
Cc1ccc(-c2cs/c(=N/NC(=O)CSc3nnnn3C)n2-c2ccccc2)cc1 | 250 µg/mL (≈ 571 µM)
Cc1ccc(-c2cs/c(=N/NC(=O)CSc3ncccn3)n2-c2ccccc2)cc1 | 250 µg/mL (≈ 577 µM)

Each compound was assayed on Aspergillus ochraceus (assay: Antimicrobial activity against Aspergillus ochraceus NRRL 3174 after 48 to 72 hrs by microbroth dilution method). Conditions: not given.
Assay type: functional

Structure (SMILES) | MIC
Cn1nnnc1SCC(=O)N/N=c1/scc(-c2ccc([N+](=O)[O-])cc2)n1-c1ccccc1 | 250 µg/mL (≈ 534 µM)
Cc1ccc(-c2cs/c(=N/NC(=O)CSc3nnnn3C)n2-c2ccccc2)cc1 | 250 µg/mL (≈ 571 µM)
Cc1ccc(-c2cs/c(=N/NC(=O)CSc3ncccn3)n2-c2ccccc2)cc1 | 250 µg/mL (≈ 577 µM)

These compounds were tested on Trichoderma harzianum (assay: Antimicrobial activity against Trichoderma harzianum NRRL 20565 after 48 to 72 hrs by microbroth dilution method). Conditions: not given.
Assay type: functional

Structure (SMILES) | MIC
Cn1nnnc1SCC(=O)N/N=c1/scc(-c2ccc([N+](=O)[O-])cc2)n1-c1ccccc1 | 125 µg/mL (≈ 267 µM)
Cc1ccc(-c2cs/c(=N/NC(=O)CSc3nnnn3C)n2-c2ccccc2)cc1 | 125 µg/mL (≈ 286 µM)
Cc1ccc(-c2cs/c(=N/NC(=O)CSc3ncccn3)n2-c2ccccc2)cc1 | 250 µg/mL (≈ 577 µM)

These compounds were tested on Penicillium chrysogenum (assay: Antimicrobial activity against Penicillium chrysogenum NRRL 1951 after 48 to 72 hrs by microbroth dilution method). Conditions: not given.
Assay type: functional

Structure (SMILES) | MIC
Cn1nnnc1SCC(=O)N/N=c1/scc(-c2ccc([N+](=O)[O-])cc2)n1-c1ccccc1 | 250 µg/mL (≈ 534 µM)
Cc1ccc(-c2cs/c(=N/NC(=O)CSc3nnnn3C)n2-c2ccccc2)cc1 | 250 µg/mL (≈ 571 µM)
Cc1ccc(-c2cs/c(=N/NC(=O)CSc3ncccn3)n2-c2ccccc2)cc1 | 250 µg/mL (≈ 577 µM)

Each compound was assayed on Aspergillus parasiticus (assay: Antimicrobial activity against Aspergillus parasiticus NRRL 465 after 48 to 72 hrs by microbroth dilution method). Conditions: not given.
Assay type: functional

Structure (SMILES) | MIC
Cn1nnnc1SCC(=O)N/N=c1/scc(-c2ccc([N+](=O)[O-])cc2)n1-c1ccccc1 | 250 µg/mL (≈ 534 µM)
Cc1ccc(-c2cs/c(=N/NC(=O)CSc3nnnn3C)n2-c2ccccc2)cc1 | 250 µg/mL (≈ 571 µM)
Cc1ccc(-c2cs/c(=N/NC(=O)CSc3ncccn3)n2-c2ccccc2)cc1 | 250 µg/mL (≈ 577 µM)

The compounds below were run on Bacillus subtilis (assay: Antimicrobial activity against Bacillus subtilis NRS-744 after 18 to 24 hrs by microbroth dilution method). Conditions: not given.
Assay type: functional

Structure (SMILES) | MIC
Cn1nnnc1SCC(=O)N/N=c1/scc(-c2ccc([N+](=O)[O-])cc2)n1-c1ccccc1 | 500 µg/mL (≈ 1070 µM)
Cc1ccc(-c2cs/c(=N/NC(=O)CSc3nnnn3C)n2-c2ccccc2)cc1 | 500 µg/mL (≈ 1140 µM)
Cc1ccc(-c2cs/c(=N/NC(=O)CSc3ncccn3)n2-c2ccccc2)cc1 | 500 µg/mL (≈ 1150 µM)

These compounds were tested on Micrococcus luteus (assay: Antimicrobial activity against Micrococcus luteus NRLL B-4375 after 18 to 24 hrs by microbroth dilution method). Conditions: not given.
Assay type: functional

Structure (SMILES) | MIC
Cn1nnnc1SCC(=O)N/N=c1/scc(-c2ccc([N+](=O)[O-])cc2)n1-c1ccccc1 | 250 µg/mL (≈ 534 µM)
Cc1ccc(-c2cs/c(=N/NC(=O)CSc3nnnn3C)n2-c2ccccc2)cc1 | 250 µg/mL (≈ 571 µM)
Cc1ccc(-c2cs/c(=N/NC(=O)CSc3ncccn3)n2-c2ccccc2)cc1 | 250 µg/mL (≈ 577 µM)

Each compound was assayed on Pseudomonas aeruginosa (assay: Antimicrobial activity against Pseudomonas aeruginosa […] after 18 to 24 hrs by microbroth dilution method). Conditions: not given.
Assay type: functional

Structure (SMILES) | MIC
Cn1nnnc1SCC(=O)N/N=c1/scc(-c2ccc([N+](=O)[O-])cc2)n1-c1ccccc1 | 250 µg/mL (≈ 534 µM)
Cc1ccc(-c2cs/c(=N/NC(=O)CSc3nnnn3C)n2-c2ccccc2)cc1 | 250 µg/mL (≈ 571 µM)
Cc1ccc(-c2cs/c(=N/NC(=O)CSc3ncccn3)n2-c2ccccc2)cc1 | 250 µg/mL (≈ 577 µM)

These compounds were tested on Escherichia coli (assay: Antimicrobial activity against Escherichia coli ATCC 25922 after 18 to 24 hrs by microbroth dilution method). Conditions: not given.
Assay type: functional

Structure (SMILES) | MIC
Cn1nnnc1SCC(=O)N/N=c1/scc(-c2ccc([N+](=O)[O-])cc2)n1-c1ccccc1 | 250 µg/mL (≈ 534 µM)
Cc1ccc(-c2cs/c(=N/NC(=O)CSc3nnnn3C)n2-c2ccccc2)cc1 | 250 µg/mL (≈ 571 µM)
Cc1ccc(-c2cs/c(=N/NC(=O)CSc3ncccn3)n2-c2ccccc2)cc1 | 250 µg/mL (≈ 577 µM)

These compounds were tested on Listeria monocytogenes (assay: Antimicrobial activity against Listeria monocytogenes ATCC 7644 after 18 to 24 hrs by microbroth dilution method). Conditions: not given.
Assay type: functional

Structure (SMILES) | MIC
Cn1nnnc1SCC(=O)N/N=c1/scc(-c2ccc([N+](=O)[O-])cc2)n1-c1ccccc1 | 250 µg/mL (≈ 534 µM)
Cc1ccc(-c2cs/c(=N/NC(=O)CSc3nnnn3C)n2-c2ccccc2)cc1 | 250 µg/mL (≈ 571 µM)
Cc1ccc(-c2cs/c(=N/NC(=O)CSc3ncccn3)n2-c2ccccc2)cc1 | 250 µg/mL (≈ 577 µM)

The compounds below were run on Staphylococcus aureus (assay: Antimicrobial activity against Staphylococcus aureus NRRL B-767 after 18 to 24 hrs by microbroth dilution method). Conditions: not given.
Assay type: functional

Structure (SMILES) | MIC
Cn1nnnc1SCC(=O)N/N=c1/scc(-c2ccc([N+](=O)[O-])cc2)n1-c1ccccc1 | 250 µg/mL (≈ 534 µM)
Cc1ccc(-c2cs/c(=N/NC(=O)CSc3nnnn3C)n2-c2ccccc2)cc1 | 250 µg/mL (≈ 571 µM)
Cc1ccc(-c2cs/c(=N/NC(=O)CSc3ncccn3)n2-c2ccccc2)cc1 | 250 µg/mL (≈ 577 µM)

Source: ChEMBL document CHEMBL3124777, “Synthesis and biological evaluation of thiazoline derivatives as new antimicrobial and anticancer agents” (Eur J Med Chem, 2014)
